Assay results as given in patent US5866570A, “Treatment of vascular leakage and related syndrome such as septic shock by administration of metalloproteinase inhibitors” (Wisconsin Alumni Research Foundation, priority 1994, dated 1999).
In brackets after ≈: the same amount, converted by molar mass.

Key:
L1210 leukemia = settings: 13 doses at 30 mg/kg; cited from earlier work
[1] = at 25° C.; cited from earlier work
mouse L cell = settings: l cells; read-out: ID50 inhibition of colony formation; cited from earlier work
OVCAR-3 cells = experiment: OVCAR-3 human ovarian cancer model in nude mice; type: in vivo; settings: 30 mg/kg i.p., one dose/day 5 consecutive days/week, from 24 hours before 20 million cells i.p.
Description: Dose and Schedule--Razoxane was suspended in sterile 1% CMC (carboxymethyl cellulose) 0.9% NaCl by sonication in a water bath. Mice received 30 mg/kg drug in 10 μl/g CMC per i.p. dose beginning 24 hours prior to cell implantation. Each mouse received one dose/day i.p. for 5 consecutive days with 2 days of recovery. Treatment continued until mouse death or sacrifice.
OVCAR-3 cells--were received from Dr. Tom Hamilton and are maintained by passage of ascites directly from the mouse. The ascites is harvested from the mouse by rinsing the peritoneal cavity with HBSS, treated briefly with Dispase to dissociate clumps, centrifuged, counted, resuspended in HBSS and 20 million cells injected i.p. per mouse.
Mice--HSD nu/nu female mice 6 weeks old (18-22 g) are weighed, tagged with a metal ear clip, and randomized for treatment or control groups. Mice are weighed daily and the dose of drug or vehicle is calculated.
Visible ascites appears around day 14 with small solid tumors at the sites of injections. The mice swell with hemorrhagic ascites prior to death. At necropsy mice contain massive invasive carcinomatosis obliterating most of the normal organs of the peritoneal cavity with significant metastasis to the lungs. A 25% increase in mean/median survival time with drug treatment is considered significant in this model.

[2] = target: T1, E. coli recombinant human 72 kD collagenase type IV (MMP-2), pAPMA activated (Homo sapiens, UniProt P08253); experiment: gelatinase assay (3H-gelatin degradation), Example 9; type: biochemical; settings: 100 ng activated enzyme, 4 hrs preincubation with inhibitor at 37° C., 3H-gelatin substrate; read-out: IC50, inhibition of collagenase type IV gelatinase activity
T1 construct: made in house; host or cells: E. coli
T1 sequence (P08253 110-660): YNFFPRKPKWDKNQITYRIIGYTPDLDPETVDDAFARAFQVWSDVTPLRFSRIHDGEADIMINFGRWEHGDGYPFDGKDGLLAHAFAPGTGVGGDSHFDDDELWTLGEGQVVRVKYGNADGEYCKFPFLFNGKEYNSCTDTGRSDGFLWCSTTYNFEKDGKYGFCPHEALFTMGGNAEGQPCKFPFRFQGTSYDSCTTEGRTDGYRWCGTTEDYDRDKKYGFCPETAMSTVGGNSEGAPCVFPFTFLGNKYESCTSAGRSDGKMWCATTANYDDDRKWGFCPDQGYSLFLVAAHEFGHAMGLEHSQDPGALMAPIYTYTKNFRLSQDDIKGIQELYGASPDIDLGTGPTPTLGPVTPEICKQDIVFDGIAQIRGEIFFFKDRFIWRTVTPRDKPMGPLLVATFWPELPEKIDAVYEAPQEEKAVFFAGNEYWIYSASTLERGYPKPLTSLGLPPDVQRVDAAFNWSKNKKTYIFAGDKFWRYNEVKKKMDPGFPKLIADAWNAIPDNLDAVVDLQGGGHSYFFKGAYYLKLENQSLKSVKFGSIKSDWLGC
From the text: Type IV collagenases are highly efficient in digesting gelatin. Inhibition of the gelatinase activity of human recombinant collagenase type IV was used as an initial assay for testing the bis(dioxopiperazine)s. The recombinant 72 kD collagenase IV used in the gelatinase assays was made in E. coli from a cDNA insert obtained from Dr. William Stetler-Stevenson (NCI). The protein runs at 72 kD on SDS-PAGE, has gelatinolytic activity in zymogram, is activated by pAPMA, is precipitated by a monoclonal anti-peptide antibody to the pro-region of the 72 kD enzyme, and is inhibited by TIMP-2. Rat tail ^3 H-collagen I (Dupont-NEN) is denatured to become gelatin by heating at 60° C. for 20 min. E. coli recombinant human 72 kD collagenase type IV is activated by incubation with 1 mM pAPMA for 1 hr. at 37° C. 100 ng of activated enzyme is added to each tube containing 50 mM Tris-HCl pH 7.5, 5 mM CaCl2 and 0.005% Brij-35 and pre-incubated with inhibitor or solvent control for 4 hrs. at 37° C. in a total of 25 μl. 10,000 cpm of ^3 H-gelatin substrate in 30 μl is added (final volume of 55 μl per sample) and the reaction mixture is incubated at 37° C. for 2 to 16 hrs. […] Enzyme activity is calculated from the radioactivity in the supernatant and activity of the compounds expressed as percent solvent control.

For CC(CN1CC(=O)NC(=O)C1)N1CC(=O)NC(=O)C1 (centres unmarked) [razoxane], the “increase in survival time” value (L1210 leukemia) is listed as 137%, the solubility in water [1] is listed as 3000 µg/mL (≈ 11.2 mM) and the IC50 (mouse L cell) is listed as 3 µM. For the same molecule, the “difference in the survival time between treated and control mice” value (OVCAR-3 cells) was over 33%.

For CC1(C)O[C@H]2C[C@H](N3CC(=O)NC(=O)C3)[C@@H](N3CC(=O)NC(=O)C3)C[C@@H]2O1 (relative stereo) [Compound 80, (3aα, 5β, 6α, 7aβ)-4,4'-(hexahydro-2,2-dimethyl-1,3-benzodioxole-5,6-diyl)bis(2,6-piperazinedione)], the IC50 [2] was 8 µM.
